The results in this text go back to ChEMBL document CHEMBL4814040 (Bioorg Med Chem Lett, 2021).

The target in data set [1] is T1, MAO-A (Homo sapiens, UniProt P21397).
T1 sequence (P21397 whole entry): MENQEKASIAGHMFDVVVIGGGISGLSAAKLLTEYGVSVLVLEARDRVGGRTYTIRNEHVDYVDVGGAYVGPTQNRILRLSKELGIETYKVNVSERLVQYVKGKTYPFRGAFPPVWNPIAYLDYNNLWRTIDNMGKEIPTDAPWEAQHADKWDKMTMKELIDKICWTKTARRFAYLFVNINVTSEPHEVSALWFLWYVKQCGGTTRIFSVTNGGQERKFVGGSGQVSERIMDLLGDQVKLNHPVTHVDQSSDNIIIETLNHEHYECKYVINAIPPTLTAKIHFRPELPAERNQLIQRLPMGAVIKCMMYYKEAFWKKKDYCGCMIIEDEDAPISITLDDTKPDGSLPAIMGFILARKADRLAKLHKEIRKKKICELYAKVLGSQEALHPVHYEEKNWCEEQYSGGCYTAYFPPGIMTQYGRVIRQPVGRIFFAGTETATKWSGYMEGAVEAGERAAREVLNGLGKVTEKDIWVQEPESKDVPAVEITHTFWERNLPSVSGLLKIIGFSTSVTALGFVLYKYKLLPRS
Briefly: Inhibition of MAO-A (unknown origin) at 10 uM relative to control.

Data set [2] addresses T2, MAO-B (Homo sapiens, UniProt P27338).
T2 sequence (P27338 whole entry): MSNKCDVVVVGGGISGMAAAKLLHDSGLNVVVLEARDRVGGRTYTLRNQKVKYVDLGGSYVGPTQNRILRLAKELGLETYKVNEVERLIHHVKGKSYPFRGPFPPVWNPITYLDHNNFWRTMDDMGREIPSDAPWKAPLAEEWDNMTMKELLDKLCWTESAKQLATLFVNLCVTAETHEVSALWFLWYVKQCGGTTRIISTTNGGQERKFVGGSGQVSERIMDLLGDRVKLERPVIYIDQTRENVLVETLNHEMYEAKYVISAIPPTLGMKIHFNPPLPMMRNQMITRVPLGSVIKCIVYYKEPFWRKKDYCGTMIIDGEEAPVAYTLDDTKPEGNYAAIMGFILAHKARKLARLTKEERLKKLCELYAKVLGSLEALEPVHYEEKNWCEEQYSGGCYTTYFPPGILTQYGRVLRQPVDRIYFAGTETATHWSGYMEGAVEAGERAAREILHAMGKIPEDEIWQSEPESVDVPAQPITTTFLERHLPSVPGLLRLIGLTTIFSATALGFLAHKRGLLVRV
Put plainly: Inhibition of MAO-B (unknown origin) at 10 uM relative to control.

Data set [3] relates to PC-3. Put plainly: cells. The conditions noted are these: Homo sapiens, PC-3, read-out: INH.
Description: Antiproliferative activity against human PC-3 cells assessed as cell growth inhibition at 16 uM relative to control
In data set [4] the test system is MCF7. Briefly: cells. The conditions noted are these: Homo sapiens, MCF7, read-out: INH.
Description: Antiproliferative activity against human MCF7 cells assessed as cell growth inhibition at 16 uM relative to control
Data set [5] relates to MGC-803. Briefly: cells. To be noted: Homo sapiens, MGC-803, read-out: INH.
Description: Antiproliferative activity against human MGC803 cells assessed as cell growth inhibition at 16 uM relative to control
Data set [6] has as its system SGC-7901. Briefly: cells. To be noted: Homo sapiens, SGC-7901, read-out: INH.
Description: Antiproliferative activity against human SGC7901 cells assessed as cell growth inhibition at 16 uM relative to control

As for `COc1ccc(OC)c(-n2cc(CN[C@@H]3C[C@H]3c3ccccc3)nn2)c1`, the inhibition at 10 µM was found to be 97% in data set [1] and 58% in data set [2].
As for `COc1ccccc1-n1cc(CN[C@@H]2C[C@H]2c2ccccc2)nn1`, the inhibition at 10 µM came to 91% in data set [1] and 44% in data set [2].
In the case of `FC(F)(F)c1ccc(-n2cc(CN[C@@H]3C[C@H]3c3ccccc3)nn2)cc1`, the inhibition at 10 µM in data set [1] worked out at 101%; in data set [2] it was 86%.
Consider `Fc1ccc([C@@H]2C[C@H]2NCc2cn(-c3ccc(C(F)(F)F)cc3)nn2)cc1F`, for which the inhibition at 10 µM in data set [1] turned out to be 101%; in data set [2] it was 82%.
On the same counts, the results for `FC(F)(F)c1cccc(-n2cc(CN[C@@H]3C[C@H]3c3ccccc3)nn2)c1` are 101% and 94%.
Taken in the same sequence, the figures for `COc1ccccc1-n1cc(CN[C@@H]2C[C@H]2c2ccc(F)c(F)c2)nn1` were 90% and 51%.
For `c1ccc([C@@H]2C[C@H]2NCc2cn(-c3ccccc3)nn2)cc1`, the figures for the inhibition at 10 µM in data set [1] and in data set [2] were 102% and 76%, respectively.
Turning to `COc1cc(OC)cc(-n2cc(CN[C@@H]3C[C@H]3c3ccc(F)c(F)c3)nn2)c1`, the inhibition at 10 µM in data set [1] is 93%; in data set [2], 42%.
Taken in the same sequence, the figures for `COc1cccc(-n2cc(CN[C@@H]3C[C@H]3c3ccccc3)nn2)c1` were 93% and 54%.
As for `COc1ccc(-n2cc(CN[C@@H]3C[C@H]3c3ccccc3)nn2)cc1`, the inhibition at 10 µM worked out at 99% in data set [1] and 55% in data set [2].
Taken in the same sequence, the figures for `Fc1ccc([C@@H]2C[C@H]2NCc2cn(-c3cc(C(F)(F)F)cc(C(F)(F)F)c3)nn2)cc1F` were 91% and 35%.
`Fc1ccc([C@@H]2C[C@H]2NCc2cn(-c3cccc(C(F)(F)F)c3)nn2)cc1F`: the inhibition at 10 µM in data set [1] is 90%; in data set [2], 43%.
In the case of `COc1cccc(-n2cc(CN[C@@H]3C[C@H]3c3ccc(F)c(F)c3)nn2)c1`, the inhibition at 10 µM in data set [1] was determined as 102%; in data set [2], 65%.
Taken in the same sequence, the figures for `COc1cc(OC)cc(-n2cc(CN[C@@H]3C[C@H]3c3ccccc3)nn2)c1` were 101% and 67%.
`COc1ccc(-n2cc(CN[C@@H]3C[C@H]3c3ccc(F)c(F)c3)nn2)cc1`: the inhibition at 10 µM was 100% in data set [1] and 64% in data set [2]. For the same compound, the inhibition at 16 µM came out at 25.2% in data set [3], 37.3% in data set [4], 16.3% in data set [5] and 42% in data set [6].
`FC(F)(F)c1cc(-n2cc(CN[C@@H]3C[C@H]3c3ccccc3)nn2)cc(C(F)(F)F)c1`: the inhibition at 10 µM came out at 92% in data set [1] and 88% in data set [2].
`COc1ccc(OC)c(-n2cc(CN[C@@H]3C[C@H]3c3ccc(F)c(F)c3)nn2)c1`: the inhibition at 10 µM in data set [1] was 89%; in data set [2] it was 48%. In addition, the inhibition at 16 µM is 21.8% in data set [3], 33.6% in data set [4], 24.5% in data set [5] and 27.7% in data set [6].
